Measured values from US20260014264A1, “SPECIFIC TOPOISOMERASE INHIBITOR, USE AS ANTIBODY DRUG CONJUGATE, AND PREPARATION METHOD THEREFOR” (BIOBRICS LIFE SCIENCE (NANTONG) CO., LTD., priority 2022, published 2026).
Read-outs that look alike come from different tables or passages of the source.

System: human non-small cell lung cancer cell line A549
Assay: In vitro cytotoxicity test of released camptothecin analogs (Luminescent Cell Viability Assay)
Assay type: cell-based
Protocol: Stable transfection of high expression Her2, high expression SK-BR-3 and BT-474 human breast cancer cells, NCI-N87 human gastric cancer cells and human non-small cell lung cancer cell line A549 were selected as the cell lines for in vitro activity detection in this experiment, and the killing dose and effect of different antibody coupled drugs on cells were observed. Preliminary selection of plate density for each cell type: 2×10^3 cells/well, followed by cytotoxicity assay after 16-24 h; Next, the antibody coupled drug prepared in Example 2 was tested with a final concentration set at 5000 nM as the starting concentration, and a series of 10 concentrations (4-10 fold dilution) were designed for 5000-0.006 nM. […] The IC50 was calculated after reading the fluorescence data.
The linkers in the present invention are all cleavable linkers. Therefore, the released camptothecin analogs were first subjected to in vitro cytotoxic activity testing, and the results are shown in the table below.

[1] = A549, 120 h, read-out: IC50 (A549, nM)
[2] = A549 cells, 120 hours, chemiluminescence cell viability, read-out: IC50 (A549)

Compound: CC[C@@]1(O)C(=O)OCc2c1cc1n(c2=O)Cc2c-1nc1cc(F)c(NC(=O)CO)c3c1c2CCC3 [Compound A1-FD]
- IC50 [1]: 69.1 nM

Compound: CC[C@@]1(O)C(=O)OCc2c1cc1n(c2=O)Cc2c-1nc1cc(F)c(NC(=O)C(C)O)c3c1c2CCC3 (stereo partly shown) [Compound A2-FD]
- IC50 [2]: 0.53 nM

Compound: CC[C@@]1(O)C(=O)OCc2c1cc1n(c2=O)Cc2c-1nc1cc(F)c(NC(=O)C(O)C3CC3)c3c1c2CCC3 (stereo partly shown) [Compound A3-FD]
- IC50 [2]: 5.5 nM

Compound: CC[C@@]1(O)C(=O)OCc2c1cc1n(c2=O)Cc2c-1nc1cc(F)c(NC(=O)C3CC3O)c3c1c2CCC3 (stereo partly shown) [Compound A9-FD]
- IC50 [2]: 25.2 nM

Compound: CC[C@@]1(O)C(=O)OCc2c1cc1n(c2=O)Cc2c-1nc1cc(F)c(NC(=O)C3CC(O)C3)c3c1c2CCC3 (stereo partly shown) [Compound A11-FD]
- IC50 [2]: 2.1 nM

Compound: CC[C@@]1(O)C(=O)OCc2c1cc1n(c2=O)Cc2c-1nc1ccc(NC(=O)CO)c3c1c2CCC3 [Compound A16-FD]
- IC50 [2]: 79.5 nM

Compound: CC[C@@]1(O)C(=O)OCc2c1cc1n(c2=O)Cc2c-1nc1cc(F)c(C)c3c1c2[C@@H](NC(=O)CO)CC3 [Dxd, reference compound]
- IC50 [1]: 45.1 nM
